# Test results published in US20220370440A1 (Lead Discovery Center GmbH, priority 2018, published 2022).
# Experiments:
# H1975 = H1975 CellTiter-Glo; type: cell-based; conditions: Homo sapiens, NCI-H1975; 72 h compound incubation; read-out: H1975 CTG IC50
# How it was run: (§1)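 Antiproliferative IC50 values come from a 72 h treatment of cultured cells, measured by CellTiter-Glo ATP luminescence. Only runs with a Z′-factor of at least 0.5, calculated from 16 vehicle and 16 Staurosporine (10 μM) control wells, are reported.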
# HER2 INS YVMA = biological target: T1, HER2 INS YVMA (Homo sapiens, UniProt P04626, INS775YVMA); test: Lance Kinase Activity Assay, HER2 INS YVMA (Her2 Exon 20 INSYVMA Lance); type: biochemical; conditions: biochemical Lance assay
# T1 construct: purchased DPF
# T1 sequence (P04626 with tags, fused parts or gaps INS775YVMA): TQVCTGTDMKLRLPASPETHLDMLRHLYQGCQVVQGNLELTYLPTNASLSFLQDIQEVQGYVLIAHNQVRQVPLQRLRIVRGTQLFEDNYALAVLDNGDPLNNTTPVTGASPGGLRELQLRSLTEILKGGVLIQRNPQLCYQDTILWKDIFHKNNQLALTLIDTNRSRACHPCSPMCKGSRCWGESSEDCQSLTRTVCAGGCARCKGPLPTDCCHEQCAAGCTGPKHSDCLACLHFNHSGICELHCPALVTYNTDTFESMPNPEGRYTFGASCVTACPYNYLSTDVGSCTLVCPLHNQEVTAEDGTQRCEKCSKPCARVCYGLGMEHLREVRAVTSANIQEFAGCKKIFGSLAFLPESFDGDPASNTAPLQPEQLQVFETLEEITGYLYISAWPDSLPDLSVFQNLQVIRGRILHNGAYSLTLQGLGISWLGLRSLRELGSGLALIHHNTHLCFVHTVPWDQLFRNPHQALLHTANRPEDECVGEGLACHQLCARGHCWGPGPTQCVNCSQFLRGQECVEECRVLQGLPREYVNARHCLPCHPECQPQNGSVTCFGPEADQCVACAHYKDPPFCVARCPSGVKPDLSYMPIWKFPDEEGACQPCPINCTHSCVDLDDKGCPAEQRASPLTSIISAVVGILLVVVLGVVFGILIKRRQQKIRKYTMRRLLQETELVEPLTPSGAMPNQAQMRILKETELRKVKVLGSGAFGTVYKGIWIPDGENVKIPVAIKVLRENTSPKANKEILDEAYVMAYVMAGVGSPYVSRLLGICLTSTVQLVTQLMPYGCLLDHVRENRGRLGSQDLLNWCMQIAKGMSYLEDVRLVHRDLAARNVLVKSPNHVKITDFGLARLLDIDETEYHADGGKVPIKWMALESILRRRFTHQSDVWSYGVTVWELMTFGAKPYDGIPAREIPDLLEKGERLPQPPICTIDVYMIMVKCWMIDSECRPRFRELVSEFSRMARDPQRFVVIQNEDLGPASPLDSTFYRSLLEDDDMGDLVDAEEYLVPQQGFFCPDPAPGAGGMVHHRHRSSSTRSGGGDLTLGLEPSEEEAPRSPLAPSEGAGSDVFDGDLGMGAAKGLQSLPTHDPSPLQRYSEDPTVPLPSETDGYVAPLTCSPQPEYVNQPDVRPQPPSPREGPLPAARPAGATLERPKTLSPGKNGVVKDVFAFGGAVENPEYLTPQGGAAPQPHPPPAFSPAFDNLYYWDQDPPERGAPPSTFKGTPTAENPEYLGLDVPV
# How it was run: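 Kinase phosphorylates a ULight-labelled peptide substrate; Eu anti-phospho antibody gives TR-FRET (ex 340 nm, em 665/615 nm). Compounds in 1:3 serial dilution over 8 steps, reaction started with ATP, 1 h at room temperature, stopped with EDTA-containing detection mix for 1 h. IC50 from sigmoidal dose-response curves.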
# EGFR T790ML858R = EGFR T790ML858R (Homo sapiens, UniProt P00533, L858R/T790M); test: EGFR T790ML858R Lance assay; type: biochemical
# Description: (§2) Inhibition is indicated as […] [nM] (“−”=not measured). Compounds having an activity designated as “A” provided an IC50≤100 nM; compounds having an activity designated as “B” provided an 100 nM<IC50≤500 nM; compounds having an activity designated as “C” provided an 500 nM<IC50≤1000 nM; compounds having an activity designated as “D” provided an 1000 nM<IC50≤100000 nM; and compounds having an activity designated as “E” provided an IC50>10000 nM.
# EGFR wt = EGFR wt (Homo sapiens, UniProt P00533); test: EGFR wt Lance assay; type: biochemical
# Sequence of EGFR wt (P00533 25-1210): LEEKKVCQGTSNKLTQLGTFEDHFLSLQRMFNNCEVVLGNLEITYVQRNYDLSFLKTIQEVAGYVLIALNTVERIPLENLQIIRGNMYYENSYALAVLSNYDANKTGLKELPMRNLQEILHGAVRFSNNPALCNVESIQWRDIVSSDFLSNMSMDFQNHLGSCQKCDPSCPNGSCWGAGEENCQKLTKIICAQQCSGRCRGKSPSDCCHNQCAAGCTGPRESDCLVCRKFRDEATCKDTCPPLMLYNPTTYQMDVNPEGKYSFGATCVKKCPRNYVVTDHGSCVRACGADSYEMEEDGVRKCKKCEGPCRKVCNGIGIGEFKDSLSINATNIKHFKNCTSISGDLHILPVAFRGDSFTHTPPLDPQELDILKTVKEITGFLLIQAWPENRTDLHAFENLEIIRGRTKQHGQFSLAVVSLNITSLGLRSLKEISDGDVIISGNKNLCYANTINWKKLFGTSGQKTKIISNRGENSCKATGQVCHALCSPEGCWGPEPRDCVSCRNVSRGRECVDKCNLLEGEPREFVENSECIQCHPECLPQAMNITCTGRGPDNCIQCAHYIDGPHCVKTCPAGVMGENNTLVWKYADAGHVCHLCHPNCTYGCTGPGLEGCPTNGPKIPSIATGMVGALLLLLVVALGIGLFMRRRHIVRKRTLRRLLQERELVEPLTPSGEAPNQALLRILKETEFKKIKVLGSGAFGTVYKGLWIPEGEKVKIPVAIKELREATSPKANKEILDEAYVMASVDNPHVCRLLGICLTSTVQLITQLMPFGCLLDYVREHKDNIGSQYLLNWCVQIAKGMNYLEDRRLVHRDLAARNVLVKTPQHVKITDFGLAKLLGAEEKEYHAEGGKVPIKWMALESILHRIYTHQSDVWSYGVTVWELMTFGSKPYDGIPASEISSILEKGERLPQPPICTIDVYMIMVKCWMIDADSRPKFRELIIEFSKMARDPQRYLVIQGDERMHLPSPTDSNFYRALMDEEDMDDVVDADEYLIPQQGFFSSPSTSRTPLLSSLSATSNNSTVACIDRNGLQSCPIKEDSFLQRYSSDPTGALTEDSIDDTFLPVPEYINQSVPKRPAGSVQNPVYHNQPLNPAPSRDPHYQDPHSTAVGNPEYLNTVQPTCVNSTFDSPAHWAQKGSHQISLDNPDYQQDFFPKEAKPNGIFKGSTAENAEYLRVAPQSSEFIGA
# Description: as §2
# [1] = biological target: EGFR Exon 20 INSNPH Ba/F3 (Homo sapiens, UniProt P00533, DUP771-773, cells depend on it); test: EGFR Exon 20 INSNPH Ba/F3 CellTiter-Glo; type: cell-based; conditions: CellTiter-Glo, 72 h, read-out: EGFR Exon 20 INSNPH Ba/F3 CTG IC50
# Sequence of EGFR Exon 20 INSNPH Ba/F3 (P00533 with tags, fused parts or gaps DUP771-773): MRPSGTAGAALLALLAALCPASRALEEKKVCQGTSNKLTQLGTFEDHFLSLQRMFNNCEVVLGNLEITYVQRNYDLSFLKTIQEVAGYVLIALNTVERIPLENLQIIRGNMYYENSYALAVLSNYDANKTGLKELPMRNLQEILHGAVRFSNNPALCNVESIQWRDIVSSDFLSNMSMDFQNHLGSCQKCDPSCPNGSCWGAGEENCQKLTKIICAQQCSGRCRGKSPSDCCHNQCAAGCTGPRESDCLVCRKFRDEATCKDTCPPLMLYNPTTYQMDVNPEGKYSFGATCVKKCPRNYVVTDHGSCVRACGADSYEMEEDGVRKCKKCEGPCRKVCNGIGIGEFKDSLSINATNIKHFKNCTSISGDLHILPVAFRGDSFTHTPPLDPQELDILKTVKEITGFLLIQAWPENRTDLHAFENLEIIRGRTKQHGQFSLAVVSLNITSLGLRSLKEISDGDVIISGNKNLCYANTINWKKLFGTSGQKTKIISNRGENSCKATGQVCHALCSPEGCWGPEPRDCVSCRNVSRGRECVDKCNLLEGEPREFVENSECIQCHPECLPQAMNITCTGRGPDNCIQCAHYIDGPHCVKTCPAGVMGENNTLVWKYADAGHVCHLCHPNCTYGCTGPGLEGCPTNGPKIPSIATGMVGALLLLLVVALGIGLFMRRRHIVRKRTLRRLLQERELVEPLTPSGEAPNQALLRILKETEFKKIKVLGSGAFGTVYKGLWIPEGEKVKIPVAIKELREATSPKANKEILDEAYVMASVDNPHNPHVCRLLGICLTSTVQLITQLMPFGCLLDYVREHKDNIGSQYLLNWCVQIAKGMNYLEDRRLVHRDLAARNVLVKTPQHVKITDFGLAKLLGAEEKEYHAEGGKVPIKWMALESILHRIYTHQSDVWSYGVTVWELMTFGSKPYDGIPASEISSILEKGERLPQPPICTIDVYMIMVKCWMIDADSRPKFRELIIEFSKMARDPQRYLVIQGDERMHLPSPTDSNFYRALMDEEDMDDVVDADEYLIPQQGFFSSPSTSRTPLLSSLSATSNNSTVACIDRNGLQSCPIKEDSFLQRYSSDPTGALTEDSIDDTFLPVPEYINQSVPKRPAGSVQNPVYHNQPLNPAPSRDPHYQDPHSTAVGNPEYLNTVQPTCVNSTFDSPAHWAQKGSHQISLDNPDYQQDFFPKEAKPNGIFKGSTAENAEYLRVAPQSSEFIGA
# How it was run: (§3)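 ATP-based luminescence (CellTiter-Glo) after 72 h compound exposure gives viability; IC50 from dose-response fit. Cells seeded 24 h ahead at 37 °C, 5% CO2. Controls: DMSO vehicle and 10 μM staurosporine; runs kept only if Z′ ≥0.5.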
# [2] = biological target: Her2 Exon 20 INSYVMA Ba/F3 (Homo sapiens, UniProt P04626, DUP772-775, cells depend on it); test: Her2 Exon 20 INSYVMA Ba/F3 CellTiter-Glo; type: cell-based; conditions: CellTiter-Glo, 72 h, read-out: Her2 Exon 20 INSYVMA Ba/F3 CTG IC50
# Sequence of Her2 Exon 20 INSYVMA Ba/F3 (P04626 with tags, fused parts or gaps DUP772-775): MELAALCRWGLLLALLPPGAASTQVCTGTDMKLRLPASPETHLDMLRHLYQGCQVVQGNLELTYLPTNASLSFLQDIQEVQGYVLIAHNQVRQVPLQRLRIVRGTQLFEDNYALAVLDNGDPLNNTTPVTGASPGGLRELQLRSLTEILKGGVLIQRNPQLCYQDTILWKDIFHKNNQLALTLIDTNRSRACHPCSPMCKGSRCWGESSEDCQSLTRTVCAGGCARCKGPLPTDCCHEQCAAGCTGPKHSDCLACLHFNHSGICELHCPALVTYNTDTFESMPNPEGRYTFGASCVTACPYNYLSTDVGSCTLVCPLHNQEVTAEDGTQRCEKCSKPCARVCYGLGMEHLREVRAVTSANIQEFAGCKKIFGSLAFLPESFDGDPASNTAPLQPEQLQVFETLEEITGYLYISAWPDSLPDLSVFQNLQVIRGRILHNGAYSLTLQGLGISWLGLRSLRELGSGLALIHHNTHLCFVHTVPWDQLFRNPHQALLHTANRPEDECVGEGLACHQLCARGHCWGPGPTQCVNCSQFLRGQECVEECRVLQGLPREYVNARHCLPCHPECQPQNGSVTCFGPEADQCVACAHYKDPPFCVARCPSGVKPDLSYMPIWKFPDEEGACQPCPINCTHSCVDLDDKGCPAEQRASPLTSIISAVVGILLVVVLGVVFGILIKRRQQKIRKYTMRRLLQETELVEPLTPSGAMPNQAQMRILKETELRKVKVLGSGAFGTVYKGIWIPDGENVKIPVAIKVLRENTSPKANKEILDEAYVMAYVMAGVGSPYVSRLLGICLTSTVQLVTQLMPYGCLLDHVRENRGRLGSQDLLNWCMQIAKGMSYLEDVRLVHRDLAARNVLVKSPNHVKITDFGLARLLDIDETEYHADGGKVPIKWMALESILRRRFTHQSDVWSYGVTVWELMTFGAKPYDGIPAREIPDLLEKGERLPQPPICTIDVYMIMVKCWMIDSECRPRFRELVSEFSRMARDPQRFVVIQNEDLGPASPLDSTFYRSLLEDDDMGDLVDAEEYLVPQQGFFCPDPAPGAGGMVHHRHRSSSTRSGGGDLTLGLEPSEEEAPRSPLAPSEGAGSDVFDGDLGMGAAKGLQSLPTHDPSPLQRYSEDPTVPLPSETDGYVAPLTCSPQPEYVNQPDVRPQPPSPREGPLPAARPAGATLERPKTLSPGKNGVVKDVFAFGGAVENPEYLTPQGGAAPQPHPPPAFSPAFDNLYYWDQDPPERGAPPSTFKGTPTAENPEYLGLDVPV
# How it was run: as §3
# A431 = A431 CellTiter-Glo; type: cell-based; conditions: Homo sapiens, A-431; 72 h compound incubation; read-out: A431 CTG IC50
# How it was run: as §1
# [3] = Metabolic stability in mouse liver microsomes without cofactor NADPH; type: in vitro ADME; conditions: 3 μM test compound, mouse liver microsomes, without NADPH, 50 min, 37° C., LC-MS/MS
# Text: There are two major groups of enzyme reactions catalyzed by drug metabolizing enzymes, the so called Phase I and Phase II reactions. The basic processes in phase I reactions are oxidation, reduction and/or hydrolysis mostly catalyzed by the cytochrome P450 (CYP) family of enzymes.
# The following procedures describe the determination of the in vitro Phase I metabolic stability of test compounds using liver microsomes by measuring compound depletion over time. Test compound at the concentration of 3 μM was incubated with the liver microsomes from the mouse species and the experiment was performed without NADPH. The depletion of the test compounds was measured over time up to 50 minutes at 37° C. by LC-MS/MS. Different compounds were tested under these conditions for microsomal stability (see Table 5).
IC50 (H1975) [µM],IC50 (HER2 INS YVMA) [µM],IC50 (EGFR T790ML858R) [µM],IC50 (EGFR wt) [µM],GI50 [1] [µM],GI50 [2] [µM],IC50 (A431) [µM],Stability in presence of mouse liver microsomes without cofactor NADPH [% remaining after 50 min] [3] [% remaining after 50 min],Structure (SMILES)
≤ 0.1,≤ 0.1,≤ 0.1,≤ 0.1,≤ 0.1,≤ 0.1,0.1 to 0.5,>99,"C=CC(=O)Nc1cc(-c2c(-c3ccc(N(C)CCN(C)C)cc3)[nH]c3nccc(Cl)c23)ccc1C [Example 43, N-(5-(4-chloro-2-(4-((2-(dimethylamino)ethyl)(methyl)amino)phenyl)-1H-pyrrolo[2,3-b]pyridin-3-yl)-2-methylphenyl)acrylamide]"
≤ 0.1,≤ 0.1,≤ 0.1,≤ 0.1,0.1 to 0.5,0.1 to 0.5,0.5 to 1,>99,"C=CC(=O)N1CCc2ccc(-c3c(-c4ccc(N5CCN(C)CC5)cc4)[nH]c4nccc(OC(C)C)c34)cc21 [Example 115, 1-(6-(4-isopropoxy-2-(4-(4-methylpiperazin-1-yl)phenyl)-1H-pyrrolo[2,3-b]pyridin-3-yl)indolin-1-yl)prop-2-en-1-one 2,2,2-trifluoroacetate]"
0.1 to 0.5,0.5 to 1,≤ 0.1,≤ 0.1,1 to 10,1 to 10,1 to 100,>99,"C=CC(=O)Nc1cc(-c2c(-c3cnc(N4CCOCC4)nc3)[nH]c3nccc(Cl)c23)ccc1C [Example 36, N-(5-(4-chloro-2-(2-morpholinopyrimidin-5-yl)-1H-pyrrolo[2,3-b]pyridin-3-yl)-2-methylphenyl)acrylamide]"
0.1 to 0.5,≤ 0.1,≤ 0.1,≤ 0.1,0.1 to 0.5,0.1 to 0.5,1 to 100,>99,"C=CC(=O)Nc1cc(-c2c(-c3ccc(N4CCN(C(C)C)CC4)cc3)[nH]c3ncc(C(=O)OC(C)C)cc23)ccc1C [Example 176, isopropyl 3-(3-acrylamido-4-methylphenyl)-2-(4-(4-isopropylpiperazin-1-yl)phenyl)-1H-pyrrolo[2,3-b]pyridine-5-carboxylate]"
≤ 0.1,≤ 0.1,≤ 0.1,≤ 0.1,≤ 0.1,≤ 0.1,0.1 to 0.5,>99,"C=CC(=O)Nc1cc(-c2c(-c3ccc(OCCN4CCCC4)cc3)[nH]c3nccc(Cl)c23)ccc1C [Example 38, N-(5-(4-chloro-2-(4-(2-(pyrrolidin-1-yl)ethoxy)phenyl)-1H-pyrrolo[2,3-b]pyridin-3-yl)-2-methylphenyl)acrylamide]"
0.5 to 1,0.1 to 0.5,≤ 0.1,≤ 0.1,1 to 10,0.5 to 1,1 to 100,>99,"C=CC(=O)N1CCCc2ccc(-c3c(-c4ccc(N5CCN(C)CC5)nc4)[nH]c4nccc(Cl)c34)cc21 [Example 93, 1-(7-(4-chloro-2-(6-(4-methylpiperazin-1-yl)pyridin-3-yl)-1H-pyrrolo[2,3-b]pyridin-3-yl)-3,4-dihydroquinolin-1(2H)-yl)prop-2-en-1-one]"
0.5 to 1,≤ 0.1,≤ 0.1,≤ 0.1,0.1 to 0.5,0.1 to 0.5,0.5 to 1,>99,"C=CC(=O)Nc1cc(-c2c(-c3ccc(N4CCN(C)CC4)cc3)[nH]c3ncc(C(=O)NC(C)C)cc23)ccc1C [Example 119, 3-(3-acrylamido-4-methylphenyl)-N-isopropyl-2-(4-(4-methylpiperazin-1-yl)phenyl)-1H-pyrrolo[2,3-b]pyridine-5-carboxamide]"
≤ 0.1,≤ 0.1,≤ 0.1,≤ 0.1,0.1 to 0.5,0.1 to 0.5,0.1 to 0.5,9,"Cc1ccc(-c2c(-c3ccc(N4CCN(C)CC4)cc3)[nH]c3nccc(Cl)c23)cc1NC(=O)CCl [Example 146, 2-chloro-N-(5-(4-chloro-2-(4-(4-methylpiperazin-1-yl)phenyl)-1H-pyrrolo[2,3-b]pyridin-3-yl)-2-methylphenyl)acetamide 2,2,2-trifluoroacetate]"
0.1 to 0.5,≤ 0.1,≤ 0.1,≤ 0.1,0.1 to 0.5,0.1 to 0.5,0.5 to 1,>99,"C=CC(=O)N1CCOc2ccc(-c3c(-c4ccnc(N5CCN(C)CC5)c4)[nH]c4nccc(Cl)c34)cc21 [Example 98, 1-(6-(4-chloro-2-(2-(4-methylpiperazin-1-yl)pyridin-4-yl)-1H-pyrrolo[2,3-b]pyridin-3-yl)-2H-benzo[b][1,4]oxazin-4(3H)-yl)prop-2-en-1-one 2,2,2-trifluoroacetate]"
0.1 to 0.5,≤ 0.1,≤ 0.1,≤ 0.1,0.5 to 1,0.5 to 1,1 to 100,>99,"C=CC(=O)N1CCCc2ccc(-c3c(-c4ccc(N5CCN(C(C)C)CC5)cc4)[nH]c4nccc(Cl)c34)cc21 [Example 91, 1-(7-(4-chloro-2-(4-(4-isopropylpiperazin-1-yl)phenyl)-1H-pyrrolo[2,3-b]pyridin-3-yl)-3,4-dihydroquinolin-1(2H)-yl)prop-2-en-1-one]"
≤ 0.1,≤ 0.1,≤ 0.1,≤ 0.1,0.1 to 0.5,0.1 to 0.5,0.5 to 1,93,"C=CC(=O)N1CCc2ccc(-c3c(-c4ccc(N5CCN(C)CC5)cc4)[nH]c4nccc(OC)c34)cc21 [Example 110, 1-(6-(4-methoxy-2-(4-(4-methylpiperazin-1-yl)phenyl)-1H-pyrrolo[2,3-b]pyridin-3-yl)indolin-1-yl)prop-2-en-1-one]"
0.1 to 0.5,≤ 0.1,≤ 0.1,≤ 0.1,0.1 to 0.5,0.1 to 0.5,1 to 100,>99,"C=CC(=O)Nc1cc(-c2c(-c3ccc(N4CCN(C)CC4)cc3)[nH]c3ncc(C(=O)OC)cc23)ccc1C [Example 134, Methyl 3-(3-acrylamido-4-methylphenyl)-2-(4-(4-methylpiperazin-1-yl)phenyl)-1H-pyrrolo[2,3-b]pyridine-5-carboxylate 2,2,2-trifluoroacetate]"
≤ 0.1,≤ 0.1,≤ 0.1,≤ 0.1,0.1 to 0.5,0.5 to 1,1 to 100,>99,C=CC(=O)Nc1cc(-c2c(-c3ccc(N4CCN(C)CC4)cc3)[nH]c3ncc(Cl)c(C)c23)ccc1C [Example 155]
